How the values were obtained:
Type in all cases: cell-based
DYRK2 = assay: Western-blot of DYRK2 protein levels in HEK-293T cells; details: for DYRK2 levels: HEK-293T transfected with Flag-DYRK2, inhibitor 10 µM for 24 hours, Figure 13B
HCT116 cells = assay: XTT cell viability assay, HCT116 cells; details: HCT116 (mutated RAS), 48 hours, Figure 14
HT-29 cells = assay: XTT cell viability assay, HT-29 cells; details: HT-29 (B-RAF V600E), different doses of Dabrafenib, with or without LDN192960 10 µM, 48 hours, Figure 16
A549 cells = assay: XTT cell viability assay, A549 cells; details: A549 (mutated RAS), 48 hours, Figure 15
pERK1/2-T202/T204 = assay: Western-blot of ERK1/2 activation loop phosphorylation in HEK-293T cells; details: Dabrafenib 10 µM 24 hours, EGF 50-100 ng/ml 5 minutes, Figure 13A

Question: Which DYRK2 stabilisation (DYRK2; HEK-293T transfected with Flag-DYRK2, Dabrafenib 10 µM 24 hours, Figure 13A) does the source give for CC(C)(C)c1nc(-c2cccc(NS(=O)(=O)c3c(F)cccc3F)c2F)c(-c2ccnc(N)n2)s1 [Dabrafenib] here?
Answer: DYRK2 stabilisation was observed

Question: And the DYRK2 levels (DYRK2)?
Answer: increasing DYRK2 levels

Question: What about the “cell viability (tumour survival)” value (HCT116 cells; low doses of Dabrafenib) of the same compound?
Answer: increase in tumour survival compared to the control

Question: What about the cell viability (HCT116 cells; very high doses of Dabrafenib) of the same compound?
Answer: slightly reducing cell viability

Question: And the cell viability (HT-29 cells)?
Answer: dose-dependent decrease in viability

Question: And the “cell viability (tumour survival)” value (A549 cells; low doses of Dabrafenib)?
Answer: increase in tumour survival compared to the control

Question: And the cell viability (A549 cells; very high doses of Dabrafenib)?
Answer: slightly reducing cell viability

Question: What about the pathway activation (pERK1/2-T202/T204) of the same compound?
Answer: reduction in pathway activation

Question: With N#CC(=C(/N)Sc1ccccc1N)/C(C#N)=C(\N)Sc1ccccc1N [U0126] as the compound, how does the DYRK2 levels (DYRK2) read?
Answer: increasing DYRK2 levels

Source: patent EP4755378A1, “DYRK2 INHIBITORS FOR TREATING TUMOURS WITH THE HYPERACTIVE MAPK/ERK PATHWAY” (Universidad de Córdoba, priority 2023, dated 2025)
